Results on five compounds are retold here after ChEMBL document CHEMBL1134239, “Synthesis and antitumor activity of novel paclitaxel-chlorambucil hybrids” (Bioorg Med Chem Lett, 2001).

Experiment [1] relates to M109. The experiment in a line: Compound was tested in vivo against M109 using Madison murine lung carcinoma (M109) tumor model. Format: functional, Mus musculus.
Experiment [2] concerns the target Tubulin alpha chain (Sus scrofa) (UniProt P02550). The experiment in a line: Compound was tested in vitro for inhibition of tubulin polymerization, expressed as ratio to that obtained for paclitaxel. In kind it is functional.
The test system of experiment [3] is HCT-116. The experiment in a line: Compound was tested for cytotoxicity against human colon tumor cell line (HCT116). In kind it is functional, cell-based.

Sequence of Tubulin alpha chain (Sus scrofa) (P02550 whole entry, looked up): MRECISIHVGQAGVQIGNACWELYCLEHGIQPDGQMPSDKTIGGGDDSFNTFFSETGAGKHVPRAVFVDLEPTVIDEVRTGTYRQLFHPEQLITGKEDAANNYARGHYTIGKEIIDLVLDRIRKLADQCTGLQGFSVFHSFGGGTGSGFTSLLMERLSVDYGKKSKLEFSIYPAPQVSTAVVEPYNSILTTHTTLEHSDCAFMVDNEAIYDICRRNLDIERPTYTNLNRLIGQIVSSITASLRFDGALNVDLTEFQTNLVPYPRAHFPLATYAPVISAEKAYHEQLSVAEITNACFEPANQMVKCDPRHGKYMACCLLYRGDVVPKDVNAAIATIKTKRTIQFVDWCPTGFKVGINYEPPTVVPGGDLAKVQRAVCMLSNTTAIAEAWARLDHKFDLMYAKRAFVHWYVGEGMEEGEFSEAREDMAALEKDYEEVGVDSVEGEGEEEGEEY

Regarding `CC(=O)O[C@H]1C(=O)[C@@]2(C)C([C@H](OC(=O)c3ccccc3)[C@]3(O)C[C@H](OC(=O)[C@H](O)[C@@H](NC(=O)c4ccccc4)c4ccccc4)C(C)=C1C3(C)C)[C@]1(OC(C)=O)CO[C@@H]1C[C@@H]2OC(=O)CCCc1ccc(N(CCCl)CCCl)cc1` (some centres undefined), in experiment [1], the T/C was determined as 127%. In experiment [2], the Tubulin polymerization came out at 53. In experiment [3], this compound returned an IC50 of 0.161 µM.
Turning to `CC(=O)O[C@H]1C(=O)[C@@]2(C)[C@H]([C@H](OC(=O)c3ccccc3)[C@]3(O)C[C@H](OC(=O)[C@H](O)[C@@H](NC(=O)c4ccccc4)c4ccccc4)C(C)=C1C3(C)C)[C@]1(OC(C)=O)CO[C@@H]1C[C@@H]2O` [PACLITAXEL], the T/C in experiment [1] is given as 246%. Moreover, the Tubulin polymerization in experiment [2] was determined as 1.
In experiment [1], `CC(=O)O[C@H]1C(=O)[C@@]2(C)C([C@H](OC(=O)c3ccccc3)[C@]3(O)C[C@H](OC(=O)[C@H](O)[C@@H](NC(=O)c4ccccc4)c4ccccc4)C(C)=C1C3(C)C)[C@]1(OC(C)=O)CO[C@@H]1C[C@@H]2OCOC(=O)CCCc1ccc(N(CCCl)CCCl)cc1` (some centres undefined) showed a T/C of 155%. In addition, the Tubulin polymerization in experiment [2] came out at 62. In experiment [3], this compound yielded an IC50 of 0.0046 µM.
In the same order, the values of `CC(=O)O[C@H]1C(=O)[C@@]2(C)C([C@H](OC(=O)c3ccccc3)[C@]3(O)C[C@H](OC(=O)[C@H](O)[C@@H](NC(=O)c4ccccc4)c4ccccc4)C(C)=C1C3(C)C)[C@]1(OC(C)=O)CO[C@@H]1C[C@@H]2OCOC(=O)N(CCOC(=O)CCCc1ccc(N(CCCl)CCCl)cc1)CCOC(=O)CCCc1ccc(N(CCCl)CCCl)cc1` (some centres undefined) are 224%, 70 and 0.024 µM.
In experiment [1], `CC(=O)OCCN(CCOC(C)=O)C(=O)OCO[C@H]1C[C@H]2OC[C@@]2(OC(C)=O)C2[C@H](OC(=O)c3ccccc3)[C@]3(O)C[C@H](OC(=O)[C@H](O)[C@@H](NC(=O)c4ccccc4)c4ccccc4)C(C)=C([C@@H](OC(C)=O)C(=O)[C@@]21C)C3(C)C` (some centres undefined) showed a T/C of 17%. Further, the Tubulin polymerization in experiment [2] came to 6.5. Further, in experiment [3], the IC50 amounted to 0.0039 µM.

One may read the T/C as the ratio of treated to control. One may read the IC50 as the concentration needed to halve the response being measured. A high value points to lower potency.
